Experimental data as given in ChEMBL document CHEMBL3046635, “Synthesis and Herbicidal Activity of New Pyrazole-4-carboxamide Derivatives” (J Pestic Sci, 2004).
The source made the active and inactive calls.

Experiments:
Elatine triandra [1] = test: Pre-emergence herbicidal activity against Elatine triandra at 500 g a.i/ha measured after 14 days; type: functional, organism-based
Rotala indica [2] = test: Pre-emergence herbicidal activity against Rotala indica at 500 g a.i/ha measured after 14 days; type: functional, organism-based
Echinochloa oryzicola [3] = test: Post-emergence herbicidal activity against Echinochloa oryzicola assessed as bleaching of stem/leaf parts; type: functional, organism-based; also: test concentration or dose not given here
Lindernia procumbens [4] = test: Pre-emergence herbicidal activity against Lindernia procumbens assessed as bleaching of stem/leaf parts; type: functional, organism-based
Lindernia procumbens [5] = test: Post-emergence herbicidal activity against Lindernia procumbens assessed as bleaching of stem/leaf parts; type: functional, organism-based; also: test concentration or dose not given here
Lindernia procumbens [6] = test: Pre-emergence herbicidal activity against Lindernia procumbens at 500 g a.i/ha measured after 14 days; type: functional, organism-based
Cyperus difformis [7] = test: Pre-emergence herbicidal activity against Cyperus difformis at 500 g a.i/ha measured after 14 days; type: functional, organism-based
Elatine triandra [8] = test: Post-emergence herbicidal activity against Elatine triandra assessed as bleaching of stem/leaf parts; type: functional, organism-based; also: test concentration or dose not given here
Oryza sativa = test: Phytotoxicity against Oryza sativa cv. Koshihikari (rice) at 500 g a.i/ha measured after 14 days; type: organism-based; details: in vivo, 336 h
Rotala indica [9] = test: Post-emergence herbicidal activity against Rotala indica assessed as bleaching of stem/leaf parts; type: functional, organism-based; also: test concentration or dose not given here
Ammannia multiflora [10] = test: Pre-emergence herbicidal activity against Ammannia multiflora at 500 g a.i/ha measured after 14 days; type: functional, organism-based
Eleocharis acicularis [11] = test: Pre-emergence herbicidal activity against Eleocharis acicularis at 500 g a.i/ha measured after 14 days; type: functional, organism-based
Ammannia multiflora [12] = test: Pre-emergence herbicidal activity against Ammannia multiflora assessed as bleaching of stem/leaf parts; type: functional, organism-based
Rotala indica [13] = test: Pre-emergence herbicidal activity against Rotala indica assessed as bleaching of stem/leaf parts; type: functional, organism-based
Eleocharis acicularis [14] = test: Post-emergence herbicidal activity against Eleocharis acicularis assessed as bleaching of stem/leaf parts; type: functional, organism-based; also: test concentration or dose not given here
[15] = system: Schoenoplectiella juncoides; test: Pre-emergence herbicidal activity against Schoenoplectiella juncoides assessed as bleaching of stem/leaf parts; type: functional, organism-based
Pontederia vaginalis [16] = test: Pre-emergence herbicidal activity against Monochoria vaginalis assessed as bleaching of stem/leaf parts; type: functional, organism-based
Cyperus difformis [17] = test: Pre-emergence herbicidal activity against Cyperus difformis assessed as bleaching of stem/leaf parts; type: functional, organism-based
Echinochloa oryzicola [18] = test: Pre-emergence herbicidal activity against Echinochloa oryzicola assessed as bleaching of stem/leaf parts; type: functional, organism-based
Ammannia multiflora [19] = test: Post-emergence herbicidal activity against Ammannia multiflora assessed as bleaching of stem/leaf parts; type: functional, organism-based; also: test concentration or dose not given here
Eleocharis acicularis [20] = test: Pre-emergence herbicidal activity against Eleocharis acicularis assessed as bleaching of stem/leaf parts; type: functional, organism-based
Cyperus difformis [21] = test: Post-emergence herbicidal activity against Cyperus difformis assessed as bleaching of stem/leaf parts; type: functional, organism-based; also: test concentration or dose not given here
Pontederia vaginalis [22] = test: Post-emergence herbicidal activity against Monochoria vaginalis assessed as bleaching of stem/leaf parts; type: functional, organism-based; also: test concentration or dose not given here
[23] = system: Schoenoplectiella juncoides; test: Pre-emergence herbicidal activity against Schoenoplectiella juncoides at 500 g a.i/ha measured after 14 days; type: functional, organism-based
Echinochloa oryzicola [24] = test: Pre-emergence herbicidal activity against Echinochloa oryzicola at 500 g a.i/ha measured after 14 days; type: functional, organism-based
[25] = system: Schoenoplectiella juncoides; test: Post-emergence herbicidal activity against Schoenoplectiella juncoides assessed as bleaching of stem/leaf parts; type: functional, organism-based; also: test concentration or dose not given here
Elatine triandra [26] = test: Pre-emergence herbicidal activity against Elatine triandra assessed as bleaching of stem/leaf parts; type: functional, organism-based
Pontederia vaginalis [27] = test: Pre-emergence herbicidal activity against Monochoria vaginalis at 500 g a.i/ha measured after 14 days; type: functional, organism-based

| SMILES | Activity (Elatine triandra [1]) | Activity (Rotala indica [2]) | Activity (Echinochloa oryzicola [3]) | Activity (Lindernia procumbens [4]) | Activity (Lindernia procumbens [5]) | Activity (Lindernia procumbens [6]) | Activity (Cyperus difformis [7]) | Activity (Elatine triandra [8]) | Activity (Oryza sativa) | Activity (Rotala indica [9]) | Activity (Ammannia multiflora [10]) | Activity (Eleocharis acicularis [11]) | Activity (Ammannia multiflora [12]) | Activity (Rotala indica [13]) | Activity (Eleocharis acicularis [14]) | Activity [15] | Activity (Pontederia vaginalis [16]) | Activity (Cyperus difformis [17]) | Activity (Echinochloa oryzicola [18]) | Activity (Ammannia multiflora [19]) | other results |
| --- | --- | --- | --- | --- | --- | --- | --- | --- | --- | --- | --- | --- | --- | --- | --- | --- | --- | --- | --- | --- | --- |
| C#CCNC(=O)c1cn(C)nc1OCc1cccc(C(F)(F)F)c1 | inactive | inactive | Active | Active | Active | inactive | inactive | Active | Non-toxic | Active | inactive | inactive | Active | Active | Active | Active | Active | Active | Active | Active | Activity (Eleocharis acicularis [20]): Active; Activity (Cyperus difformis [21]): Active; Activity (Pontederia vaginalis [22]): Active; Activity [23]: inactive; Activity (Echinochloa oryzicola [24]): inactive; Activity [25]: Active; Activity (Elatine triandra [26]): Active; Activity (Pontederia vaginalis [27]): inactive |
| Cn1cc(C(=O)N2CCCC2)c(OCc2cccc(C(F)(F)F)c2)n1 | inactive | inactive | Active | Active | Active | inactive | inactive | Active | Non-toxic | Active | inactive | inactive | Active | Active | Active | Active | Active | Active | Active | Active | Activity (Eleocharis acicularis [20]): Active; Activity (Cyperus difformis [21]): Active; Activity (Pontederia vaginalis [22]): Active; Activity [23]: inactive; Activity (Echinochloa oryzicola [24]): inactive; Activity [25]: Active; Activity (Elatine triandra [26]): Active; Activity (Pontederia vaginalis [27]): inactive |
| CCN(C(=O)c1cn(C)nc1OCc1cccc(C(F)(F)F)c1)C1CCCCC1 | inactive | inactive | Active | Active | Active | inactive | inactive | Active | Non-toxic | Active | inactive | inactive | Active | Active | Active | Active | Active | Active | Active | Active | Activity (Eleocharis acicularis [20]): Active; Activity (Cyperus difformis [21]): Active; Activity (Pontederia vaginalis [22]): Active; Activity [23]: inactive; Activity (Echinochloa oryzicola [24]): inactive; Activity [25]: Active; Activity (Elatine triandra [26]): Active; Activity (Pontederia vaginalis [27]): inactive |
| Cn1nc(OCc2cccc(C(F)(F)F)c2)c(C(=O)NOc2ccc(F)cc2F)c1Cl | inactive | inactive | Active | Active | Active | inactive | inactive | Active | Non-toxic | Active | inactive | inactive | Active | Active | Active | Active | Active | Active | Active | Active | Activity (Eleocharis acicularis [20]): Active; Activity (Cyperus difformis [21]): Active; Activity (Pontederia vaginalis [22]): Active; Activity [23]: inactive; Activity (Echinochloa oryzicola [24]): inactive; Activity [25]: Active; Activity (Elatine triandra [26]): Active; Activity (Pontederia vaginalis [27]): inactive |
